Laboratory results taken from patent publication US9757472B2, “Proteas stabilized antibacterial peptides for S. aureus” (Arizona Board of Regents on Behalf of Arizona State …, priority 2014, dated 2017).
Read-outs that look alike come from different tables or passages of the source. Starred links: 1 amine or outer side, 2 acyl side, 3 side chain; linkers in the order of their positions; H or OH if unused. Positions of bridges follow the written chain, without caps; N, C: chain ends. Non-standard residues stand in square brackets, D forms with d. Residues, ends and D or L forms follow the SMILES beside them. Chains are numbered I, II in the order given. No end group written: not given here. ξ: configuration not given here. *: point of attachment. Succinimide(1-C2H4CO,3-yl) = O=C1CC([*:1])C(=O)N1CCC(=O)[*:2]; Biotin = O=C1N[C@H]2[C@H](CS[C@H]2CCCCC(=O)*)N1; X2 = O=C1NC2CS[C@@H](CCCCC(=O)*)C2N1; X1 = O=C1NC2CSC(CCCCC(=O)*)C2N1; ξK = NCCCCC(N)C(=O)O; ξC = NC(CS)C(=O)O; ξS = NC(CO)C(=O)O; tBu = CC(C)(C)*

How the values were obtained:
MSSA [1] = test system: MSSA
MSSA [2] = experiment: Minimum bactericidal concentration (MBC) / bactericidal activity against MSSA; type: cell-based, S. aureus; conditions: for MBC (μM) (MSSA): 14 h
red blood cell [3] = test system: red blood cell
red blood cell [4] = experiment: Hemolysis (H50); conditions: Table 3
in vitro = conditions: mouse, serum

Compound | MIC (μM) (MSSA) (MSSA [1]) | MBC (μM) (MSSA) (MSSA [2]) | H50 (red blood cell [3]) | other results
N=C(N)NCCC[C@H](NC(=O)[C@H](CCCNC(=N)N)NC(=O)[C@@H](CCCCN)NC(=O)[C@@H](CCCCN)NC(=O)CNC(=O)[C@H](CO)NC(=O)[C@@H](N)CS)C(=O)N[C@@H](Cc1c[nH]cn1)C(=O)N[C@@H](Cc1c[nH]cn1)C(=O)N[C@H](CCCNC(=N)N)C(=O)N[C@H](CCCNC(=N)N)C(=O)N[C@H](CCCCN)C(=O)N[C@H](CCCCN)C(=O)N[C@@H](CCCNC(=N)N)C(=O)N[C@H](CCCNC(=N)N)C(=O)N[C@@H](Cc1c[nH]cn1)C(=O)N[C@@H](Cc1c[nH]cn1)C(=O)N[C@H](CCCNC(=N)N)C(=O)N[C@H](CCCNC(=N)N)C(=O)N[C@@H](CCCCN)C(=O)O [D1, CSGkkRRHHrrkkRrHHrrK] (H-CSG[dK][dK]RRHH[dR][dR][dK][dK]R[dR]HH[dR][dR]K-OH; N-terminus and C-terminus assumed) | <50 µM | – | – | –
N=C(N)NCCC[C@H](NC(=O)CNC(=O)[C@H](CO)NC(=O)[C@@H](N)CS)C(=O)N[C@H](CCCNC(=N)N)C(=O)N[C@H](CCCCN)C(=O)N[C@H](CCCNC(=N)N)C(=O)N1CCC[C@H]1C(=O)N[C@H](CCCNC(=N)N)C(=O)N[C@H](CCCNC(=N)N)C(=O)N[C@H](CCCCN)C(=O)N[C@H](CCCNC(=N)N)C(=O)N1CCC[C@H]1C(=O)N[C@@H](CCCNC(=N)N)C(=O)N[C@H](CCCNC(=N)N)C(=O)N[C@H](CCCCN)C(=O)N[C@@H](CCCNC(=N)N)C(=O)N1CCC[C@H]1C(=O)N[C@@H](CCCNC(=N)N)C(=O)N[C@H](CCCNC(=N)N)C(=O)O [D2, CSGRrkrPrrkrPRrkRPRr] (H-CSGR[dR][dK][dR]P[dR][dR][dK][dR]PR[dR][dK]RPR[dR]-OH; N-terminus and C-terminus assumed) | <50 µM | – | – | –
I: Ac-[dR]W[dR][dR]H[dK]H[dF][dK][dR]PH[dR][dK]H[dK][dR]GSC-NH2 / II: Ac-[dR]W[dR][dR]H[dK]H[dF][dK][dR]PH[dR][dK]H[dK][dR]GSC-NH2 / III: [ξK]G[ξS][ξK][ξS]G[ξK](X2)G[ξC](tBu)-NH2 (linker I:20-III:1, II:20-III:N via Succinimide(1-C2H4CO,3-yl)) [Ly-Ly-Sc0] | 12.5 µM | 12.5 µM | >500 µM | MIC (μM) MRSA (USA300) (MRSA): 6.25 µM
I: CSGEMWAIMPPIIKPDNKGH-NH2 / II: CSGR[dR][dK][dR]P[dR][dR][dK][dR]PR[dR][dK]RPR[dR]-NH2 / III: KGSKSGK(Biotin)GC(tBu)-NH2 (linker I:1-III:1, II:1-III:N via Succinimide(1-C2H4CO,3-yl)) [D2-88-SC0] | – | – | – | H50 (red blood cell [4]): >500 µM
I: CSGR[dR][dK][dR]P[dR][dR][dK][dR]PR[dR][dK]RPR[dR] / II: CSGR[dR][dK][dR]P[dR][dR][dK][dR]PR[dR][dK]RPR[dR] / III: [ξK]G[ξS][ξK][ξS]G[ξK](X2)G[ξC](tBu)-NH2 (linker I:1-III:1, II:1-III:N via Succinimide(1-C2H4CO,3-yl)) [D2-D2-Sc0, CSGRrkrPrrkrPRrkRPRr-Sc0-CSGRrkrPrrkrPRrkRPRr] | 5 µM | 5 µM | >500 µM | –
I: CSG[dK][dK]RRHH[dR][dR][dK][dK]R[dR]HH[dR][dR]K / II: CSG[dK][dK]RRHH[dR][dR][dK][dK]R[dR]HH[dR][dR]K / III: [ξK]G[ξS][ξK][ξS]G[ξK](X2)G[ξC](tBu)-NH2 (linker I:1-III:1, II:1-III:N via Succinimide(1-C2H4CO,3-yl)) [D1-D1-Sc0, CSGkkRRHHrrkkRrHHrrK-Sc0-CSGkkRRHHrrkkRrHHrrK] | 10 µM | 5 µM | >500 µM | –
I: D[dR]IFH[dK]MQH[dK]PY[dK]I[dK][dK][dR]GSGGGK[ξK](X1)-NH2 / II: [dR]W[dR][dR]H[dK]HF[dK][dR]PH[dR][dK]H[dK][dR]GSG (amide I:23-II:C) [Synbody (4)] | – | – | – | bactericidal activity against MSSA (in words) (MSSA [2]): some bactericidal activity against MSSA; MIC, MSSA (n = 3) (MSSA [1]): 2.2 µM; MIC, MRSA (n = 2) (MRSA): 3.3 µM; H50 = concentration that causes 50% hemolysis (red blood cell [3]): >200 µM; half-life (in vitro): ~2.17 h
